# Assay results published in patent publication US20020173538A1, “Method for sensitizing cancer cells to cancer therapies with a mevalonate-reducing compound” (priority 2000, published 2002).
# Like-named read-outs stand apart in the source and are kept apart here. Marks after values point to notes of the source that are not given here.
# Key:
# [1] = MTT cell viability assay, Hep G2 cells (serum-free DMEM); settings: human, Hep G2 cells, Cell viability; for viability at 96 h, 10 μM: lovastatin 10 μM alone
# Description: (§1) Human hepatoma cell lines Hep G2 and Hep 3 were chosen as the in vitro models of hepatocytes and hepatoma, respectively.
# Hep 3B cells [2] = test: MTT cell viability assay, Hep 3B cells (serum-free DMEM)
# Description: as §1
# Hep 3B/T2 cells = test: Tumor growth of Hep 3B/T2 cells in nude mice; type: in vivo, BALB/c-nu/nu nude mice
# Description: The descriptive statistics were summarized as mean±STD. For statistical analysis, Student's t-test was used to determine significance of mean differences between groups.
# Hep 3B cells [3] = test: Cell cycle determination by flow cytometry, Hep 3B; type: cell-based, human; settings: cell line not given
# [4] = lovastatin 50 μM 48 hr, then no taxol 48 hr
# [5] = LOV 10 μM 48 hr, then LOV 10 μM without MVA another 24 hr
# [6] = LOV 10 μM 48 hr, then LOV 10 μM without MVA another 48 hr
# [7] = LOV 10 μM 48 hr, then LOV 10 μM without MVA another 72 hr
# [8] = Cycle 2 (Day 63), LOV 37.5 mg/kg/day p.o. days 28-34 and 49-55 and/or taxol 120 μg/kg/2 day i.p. day 36, 38, 40, 57, 59, 61
structure (smiles),measurement,setting,value
"CC[C@H](C)C(=O)O[C@H]1C[C@@H](C)C=C2C=C[C@H](C)[C@H](CC[C@@H]3C[C@@H](O)CC(=O)O3)[C@H]21 [Lovastatin, lovastatin]","viability at 96 h, 10 μM",[1]; Table 10,51.9 ± 4.4%
same,"viability at 96 h, 10 μM",[1]; Table 21,52.4 ± 5.5%
same,"viability at 96 h, 10 μM",[1]; Table 25,50.3 ± 4.9%
same,"viability at 72 h, 10 μM","[1]; lovastatin 10 μM, 72 hr",78.7 ± 5.3%
same,"viability at 72 h, 20 μM","[1]; lovastatin 20 μM, 72 hr",75.3 ± 4.2%
same,"viability at 48 h, 50 μM",[1]; [4],14.6 ± 1.3%
same,"viability at 72 h, 50 μM","[1]; lovastatin 50 μM, 72 hr",58.2 ± 4.2%
same,IC50,"Hep 3B cells [2]; Homo sapiens, Hep3B, 48 h, read-out: IC50 (cell viability), 48 hr, Table 3",62.3 ± 7.1 µM
same,IC50,"Hep 3B cells [2]; Homo sapiens, Hep3B, 48 h, read-out: IC50 (cell viability), 48 hr, Table 4",63.6 µM
same,IC50,"Hep 3B cells [2]; Homo sapiens, Hep3B, 48 h, read-out: IC50 of lovastatin (cell viability), 48 hr treatment",63.6 ± 7.1 µM
same,viability at 1 µM,"Hep 3B cells [2]; Homo sapiens, Hep3B, 72 h, read-out: Cell viability, lovastatin 1 μM, 72 hr",84.1 ± 4.5%
same,viability at 2 µM,"Hep 3B cells [2]; Homo sapiens, Hep3B, 72 h, read-out: Cell viability, lovastatin 2 μM, 72 hr",71.4 ± 3.8%
same,viability at 5 µM,"Hep 3B cells [2]; Homo sapiens, Hep3B, 72 h, read-out: Cell viability, lovastatin 5 μM alone, 72 hr, Table 23",60.7 ± 2.4%
same,viability at 5 µM,"Hep 3B cells [2]; Homo sapiens, Hep3B, 72 h, read-out: Cell viability, lovastatin 5 μM, 72 hr",58.8 ± 1.8%
same,viability at 10 µM,"Hep 3B cells [2]; Homo sapiens, Hep3B, 72 h, read-out: Cell viability, lovastatin 10 μM alone, 72 hr, Table 23",48.5 ± 2.5%
same,viability at 10 µM,"Hep 3B cells [2]; Homo sapiens, Hep3B, 72 h, read-out: Cell viability, lovastatin 10 μM, 72 hr",41.4 ± 1.5%
same,viability at 50 µM,"Hep 3B cells [2]; Homo sapiens, Hep3B, 72 h, read-out: Cell viability, lovastatin 50 μM, 72 hr",15.2 ± 1.8%
same,IC50,"Hep 3B cells [2]; Homo sapiens, Hep3B, 72 h, read-out: IC50 (cell viability), 72 hr, Table 3",6.8 ± 1.3 µM
same,IC50,"Hep 3B cells [2]; Homo sapiens, Hep3B, 72 h, read-out: IC50 (cell viability), 72 hr, Table 4",6.8 µM
same,IC50,"Hep 3B cells [2]; Homo sapiens, Hep3B, 72 h, read-out: IC50 of lovastatin (cell viability), 72 hr treatment",6.8 ± 1.3 µM
same,viability at 10 µM,"Hep 3B cells [2]; Homo sapiens, Hep3B, 96 h, read-out: Cell viability, lovastatin 10 μM alone, 96 hr, Table 10",29.8 ± 1.2%
same,viability at 10 µM,"Hep 3B cells [2]; Homo sapiens, Hep3B, 96 h, read-out: Cell viability, lovastatin 10 μM alone, 96 hr, Table 21",27.5 ± 8.2%
same,viability at 10 µM,"Hep 3B cells [2]; Homo sapiens, Hep3B, 96 h, read-out: Cell viability, lovastatin 10 μM alone, 96 hr, Table 25",28.6 ± 1.7%
same,IC50,"Hep 3B cells [2]; Homo sapiens, Hep3B, 96 h, read-out: IC50 (cell viability), 96 hr",5.9 µM
same,IC50,"Hep 3B cells [2]; Homo sapiens, Hep3B, 120 h, read-out: IC50 (cell viability), 120 hr",1.3 µM
same,Cell viability,"Hep 3B cells [2]; LOV 1 μM, 48 hr",90.2 ± 0.3^b % of control
same,Cell viability,"Hep 3B cells [2]; LOV 2 μM, 48 hr",86.1 ± 2.0^bc % of control
same,Cell viability,"Hep 3B cells [2]; LOV 5 μM, 48 hr",78.6 ± 4.7^cd % of control
same,Cell viability,"Hep 3B cells [2]; LOV 5 μM, 48 hr, Table 4",78.6 ± 4.7^b % of control
same,Cell viability,"Hep 3B cells [2]; LOV 5 μM, 96 hr",56.4 ± 5.1^c % of control
same,Cell viability,"Hep 3B cells [2]; LOV 5 μM, 120 hr",20.3 ± 3.6^d % of control
same,Cell viability,Hep 3B cells [2]; [5],52.6 ± 2.6^b % of control
same,Cell viability (cell number),Hep 3B cells [2]; [5],5.3 ± 0.1^b 1 × 10^3 cells
same,Cell viability,Hep 3B cells [2]; [6],7.3 ± 0.5^b % of control
same,Cell viability (cell number),Hep 3B cells [2]; [6],1.0 ± 0.1^b 1 × 10^3 cells
same,Cell viability,Hep 3B cells [2]; [7],3.2 ± 1.8^b % of control
same,Cell viability (cell number),Hep 3B cells [2]; [7],0.6 ± 0.5^b 1 × 10^3 cells
same,Cell viability,"Hep 3B cells [2]; LOV 10 μM, 48 hr",66.4 ± 0.8^de % of control
same,Cell viability,"Hep 3B cells [2]; LOV 10 μM, 48 hr, Table 4",66.4 ± 0.8^b % of control
same,Cell viability,"Hep 3B cells [2]; LOV 10 μM, 96 hr",31.7 ± 2.7^d % of control
same,Cell viability,"Hep 3B cells [2]; LOV 10 μM, 120 hr",6.9 ± 1.3^e % of control
same,Cell viability,"Hep 3B cells [2]; LOV 20 μM, 48 hr",55.7 ± 6.6^ef % of control
same,Cell viability,"Hep 3B cells [2]; LOV 50 μM, 48 hr",52.2 ± 1.9^f % of control
same,Cell viability,"Hep 3B cells [2]; lovastatin 5 μM 48 hr, then no CAPE 48 hr",64.3 ± 5.5 % of control
same,Cell viability,"Hep 3B cells [2]; lovastatin 5 μM 48 hr, then no taxol 48 hr",49.8 ± 7.8 % of control
same,Cell viability,"Hep 3B cells [2]; lovastatin 5 μM 72 hr, then no taxol 48 hr",27.7 ± 2.0 % of control
same,Cell viability,"Hep 3B cells [2]; lovastatin 5 μM 72 hr, then no taxol 72 hr",13.0 ± 3.0 % of control
same,Cell viability,"Hep 3B cells [2]; lovastatin 10 μM 48 hr, then no CAO 48 hr",47.9 ± 6.1^de % of control
same,Cell viability,"Hep 3B cells [2]; lovastatin 10 μM 48 hr, then no CAPE 48 hr",59.3 ± 4.5^d % of control
same,Cell viability,"Hep 3B cells [2]; lovastatin 10 μM 48 hr, then no GL-M1 48 hr",53.6 ± 8.2^c % of control
same,Cell viability,"Hep 3B cells [2]; lovastatin 10 μM 48 hr, then no taxol 48 hr",45.7 ± 3.1^d % of control
same,Cell viability,"Hep 3B cells [2]; lovastatin 10 μM 72 hr, then no taxol 48 hr",20.4 ± 7.0^c % of control
same,Cell viability,"Hep 3B cells [2]; lovastatin 10 μM 72 hr, then no taxol 72 hr",14.7 ± 3.6^d % of control
same,Cell viability,Hep 3B cells [2]; [4],2.9 ± 4.1 % of control
same,Tumor size,"Hep 3B/T2 cells; Cycle 1 (Day 42), LOV 37.5 mg/kg/day p.o. days 28-34 and 49-55 and/or taxol 120 μg/kg/2 day i.p. day 36, 38, 40, 57, 59, 61",0.533 cm^3
same,Tumor size,Hep 3B/T2 cells; [8],1.263 cm^3
same,percentage of inhibition of tumor size,Hep 3B/T2 cells; [8],(−49.5%
same,Tumor size,"Hep 3B/T2 cells; Day 15, LOV 75 mg/kg/day p.o. days 8-14 and/or taxol 120 μg/kg/day i.p. days 15-19, n = 3",0.050 cm^3
same,Tumor size,"Hep 3B/T2 cells; Day 20, LOV 75 mg/kg/day p.o. days 8-14 and/or taxol 120 μg/kg/day i.p. days 15-19, n = 3",0.051 cm^3
same,Tumor size,"Hep 3B/T2 cells; Day 23, LOV 75 mg/kg/day p.o. days 8-14 and/or taxol 120 μg/kg/day i.p. days 15-19, n = 3",0.059 cm^3
same,Tumor size (1 × w^2 × 0.52 cm^3) Day 28,"Hep 3B/T2 cells; Day 28 after inoculation of 1 × 10^7 Hep 3B/T2 cells in male BALB/c-nu/nu nude mice, p.o. lovastatin 37.5 mg/kg/day (days 28-34, 49-55) and/or i.p. taxol 120 μg/kg/2 day (days 36, 38, 40, 57, 59, 61), mean ± SEM",0.170 cm^3
same,Tumor size,"Hep 3B/T2 cells; after two cycles: lovastatin fed 7 days, then paclitaxel injected 3 days (FIG. 38), mean±STD",1.26±1.82 cm^3
same,cell cycle arrest stage,Hep 3B cells [3],G0/G1 arrest
